Patent US9244060B2, “Site localization and methods for monitoring treatment of disturbed blood vessels” (Warsaw Orthopedic, Inc., priority 2009, dated 2016)

Conditions: rat, in vivo
Procedure: Female Sprague-Dawley rats (Harlan Sprague-Dawley, Indianapolis, Ind.), weighing 250-300 grams each were given free access to food and water before the experiment. The animals were anesthetized with ketamine (80 mg/kg) and xylazine (10 mg/kg). Brain temperatures were monitored using a rectal thermometer. The animals' body temperature was maintained at 37° C. by using a water-jacketed heating pad. Brain temperature was monitored for 1 hour prior to injury to 6 hours following injury and was recorded at 30-minute intervals.
Young adult female Sprague-Dawley rats received a spinal cord contusion using the Precision Systems and Instrumentation, LLC (Fairfax Station, Va.) pneumatic impactor. Prior to surgery, rats were assigned to different treatment groups based on a randomized block design so that on any given surgery day all treatment groups were included. The rats were anesthetized with ketamine (80 mg/.kg) and xylazine (10 mg/kg) before laminectomy was performed at the 10th thoracic vertebra (T10). The vertebral column was stabilized with angled clamps on the upper thoracic (T8) and lumber (T11) levels and the impactor with a tip diameter of 2 mm was delivered at approximately 150 kdynes onto the exposed, intact dura overlying the dorsal spinal cord. The impactor was immediately removed, the wound irrigated with saline and the muscle and skin openings sutured together.
Two hours following injury, 0.8% magnesium in 3350 formulations was administered by intravenous infusion of 5 mL/kg over a 30-min period. For repeated infusions, an interval of 6 hours was used between infusions and the right jugular vein was cannulated with PE 50 tubing. The cannula was secured through the back of the neck and capped between infusion periods. Animals were re-anesthetized for re-administration of compounds. The contents of the infusion vials were blinded to the investigators performing both the infusions and the analyses.
At various time points after infusion, cerebrospinal fluid and/or blood samples and/or spinal cord tissue with and without the injury site were collected. […]
Serum and CSF samples were analyzed for magnesium concentrations by the Clinical Pathology Department at WIL Research Laboratories, LLC, 1407 George Road, Ashland, Ohio 44805. […] The formation of the chromophore (and consequently a reduction of the xylidyl blue) is proportional to the concentration of Mg^2+, measured by the instrument as a decrease in the xylidyl blue absorbance (600 nm). […]
Tissue and plasma concentrations of PEG-3350 in rat plasma were measured using a validated high performance liquid chromatograpy tandem mass spectrometry (HPLC/MS/MS) method in positive electrospray ionization mode. […] The samples were analyzed with an HPLC/MS/MS assay using a Thermo Hypersil ODS column. […]

In the case of [Mg+2] [Magnesium, magnesium], the “time for Magnesium serum level to decrease to baseline level post-infusion” value is reported as 30 to 60 min and the “time at which Cmax of Magnesium serum level was observed” value (iv) is reported as “at the end of the infusion”.

For polyethylene glycol [PEG], the “time for PEG plasma level to decrease to baseline level post-infusion” value was 30 to 60 min and the “time at which Cmax of PEG plasma level was observed” value (iv) was “at the end of the infusion”.
